Biological target: T1, RET (Homo sapiens, UniProt P07949)
T1 construct: RET tyrosine kinase domain (human recombinant RET expressed in Sf9 insect cells)
T1 sequence (P07949 724-1016 limits assumed): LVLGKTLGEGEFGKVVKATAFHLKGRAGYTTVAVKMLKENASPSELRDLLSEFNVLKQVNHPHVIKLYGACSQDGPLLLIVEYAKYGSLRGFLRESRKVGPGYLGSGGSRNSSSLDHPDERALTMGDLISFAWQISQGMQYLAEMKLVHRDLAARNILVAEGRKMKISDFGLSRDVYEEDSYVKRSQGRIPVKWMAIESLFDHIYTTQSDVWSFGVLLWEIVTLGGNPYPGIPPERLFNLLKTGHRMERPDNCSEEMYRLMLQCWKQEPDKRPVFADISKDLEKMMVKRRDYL
Experiment: luminescent ATP-to-ADP conversion kinase assay (IGF1Rtide substrate, […] ATP), in the dark
Assay type: biochemical

`CC(C)n1nc(/N=N/c2ccccc2)c2c(N)ncnc21` [compound 4, E-4] gave an IC50 of 150 nM.

Reference: PMC4421829, “Design, Synthesis and Inhibitory Activity of Photoswitchable RET Kinase Inhibitors” (Scientific Reports, 2015)
